Columns and labels:
DYRK1A kinase = DYRK1A kinase (Homo sapiens, UniProt Q13627); assay: DYRK1A kinase activity (Ser/Thr 18 peptide Z-lyte FRET assay); format: biochemical; details: recombinant DYRK1A, 30 μM ATP, one hour at room temperature;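 further: kinase activity read as coumarin/fluorescein emission ratio after development step, with unphosphorylated and phosphorylated peptide forms setting 0% and 100% controls, values from dose-response curves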
Experimental: Representative compounds were screened using the assay procedure for DYRK1A kinase activity as described below.
Each compound was dissolved in DMSO as a 10 mM stock and used to prepare compound source plates.
This is a non-radioactive assay using fluorescence resonance energy transfer (FRET) between coumarin and fluorescein to detect kinase activity which is represented as a ratio of coumarin emission/fluorescein emission.
The mixture was allowed to incubate with the representative compounds for one hour at room temperature. All reactions were performed in duplicate. Unphosphorylated (“0% Control”) and phosphorylated (“100% control”) forms of Ser/Thr 18 served as control reactions. Additionally, an 11-point dose-response curve of Staurosporine (1 uM top) was run to serve as a positive compound control.
After incubation, Development Reagent A was diluted in Development Buffer then added to the reaction and allowed to further incubate for one hour at room temperature.
Dose-response curves were generated and inhibitory concentration (IC50) values were calculated using non-linear regression curve fit in the Dotmatics' Studies Software (Bishops Stortford, UK).

GSK3β kinase = GSK3β kinase (Homo sapiens, UniProt P49841); assay: GSK3β kinase activity (Ser/Thr 09 peptide Z-lyte FRET assay); format: biochemical; details: recombinant kinase, 46 μM ATP, one hour at room temperature; read-out: EC50
GSK3β kinase, sequence (P49841 whole entry): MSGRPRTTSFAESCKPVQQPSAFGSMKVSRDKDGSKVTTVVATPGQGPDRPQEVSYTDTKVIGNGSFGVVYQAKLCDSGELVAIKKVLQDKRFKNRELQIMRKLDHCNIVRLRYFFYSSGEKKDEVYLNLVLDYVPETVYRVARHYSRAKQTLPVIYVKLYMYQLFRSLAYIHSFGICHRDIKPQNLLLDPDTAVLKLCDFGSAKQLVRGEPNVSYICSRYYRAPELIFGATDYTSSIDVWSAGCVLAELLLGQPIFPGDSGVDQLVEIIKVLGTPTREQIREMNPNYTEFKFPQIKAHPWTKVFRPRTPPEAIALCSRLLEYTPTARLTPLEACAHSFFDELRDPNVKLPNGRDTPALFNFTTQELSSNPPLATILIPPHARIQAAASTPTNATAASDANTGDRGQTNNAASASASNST
Experimental: Each compound is dissolved in DMSO as a 10 mM stock and used to prepare compound source plates. Serial dilution (1:3, 11-point dose-response curves from 10 μM to 0.0003 μM) and compound transfer was performed using the ECHO 550 (Labcyte, Sunnyvale, Calif.) into 1536-well black-walled round bottom plates (Corning).
This is a non-radioactive assay using fluorescence resonance energy transfer (FRET) between coumarin and fluorescein to detect kinase activity which is represented as ratio of coumarin emission/fluorescein emission.
The mixture is allowed to incubate with the representative compounds for one hour at room temperature. All reactions were performed in duplicate. Unphosphorylated (“0% Control”) and phosphorylated (“100% control”) forms of Ser/Thr 18 serve as control reactions.
After incubation, diluted Development Buffer is added to the reaction and allowed to further incubate for one hour at room temperature.
Dose-response curves are generated and inhibitory concentration (IC50) values are calculated using non-linear regression curve fit in the Dotmatics' Studies Software (Bishops Stortford, UK).

[1] = tested on: Tau phosphorylation at Ser396 (pSer396); assay: Tau phosphorylation at Ser396 (pSer396) in SH-SY5Y cells, ELISA / western blot; format: cell-based, human; details: Homo sapiens; SH-SY5Y cells, overnight (16-18 h); read-out: pSer396 Tau EC50;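 further: decrease in pSer396 Tau measured in lysates of treated cells by colorimetric ELISA or chemiluminescent western blot, same pSer396 antibody for both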
Experimental: Two days before treatment, cells were seeded onto 96 well plates at 5×10^4 cells/well.
The above synthesized compounds were screened using the cell assay procedure to assess decrease Tau phosphorylation at Ser396 (pSer396) described below.
Cells were lysed with RIPA buffer complemented with phosphatase and protease inhibitors then lysates were spun down at 12,000 g for 10 min to remove any cellular debris.

[2] = tested on: Tau phosphorylation at Threonine 212 (pT212Tau); assay: Tau phosphorylation at Threonine 212 (pT212Tau) in Dyrk1a- and MAPT-overexpressing HEK293T cells, sandwich ELISA; format: cell-based; details: Homo sapiens, HEK-293T, overnight (16-18 hours), read-out: Thr212 EC50
Experimental: HEK293T cells (transfectable human embryonic kidney cells) were cultured in DMEM medium supplemented with 10% FBS and 1% penicillin/streptomycin.
HEK293T cells were transiently transfected to overexpress Dyrk1a and microtubule-associated protein Tau (MAPT) genes. Specifically, Dyrk1a and MAPT expression vectors were obtained from OriGene (10 μg of each, catalog numbers SC314641 and RC216166, respectively). A MaxiPrep for each vector was ordered and received from GeneWiz, yielding 874.5 μg (resuspended at […]) of the Dyrk1a expression vector, and 898 μg (resuspended at […]) of MAPT.
HEK293T cells were seeded at 1.0×10^7 cells in 10 mL per T-75 flask. […] One T-75 flask was designated as a no-vector negative control for pT212Tau signal.
After 4-6 hours of incubation in transfection reagents, transiently double transfected HEK293T cells were dissociated by treatment with trypsin EDTA and seeded at 1.0×10^5 cells in 100 μL per well in 96-well plates. No-vector negative controls were seeded in separate 96-well plates to avoid the risk of the negative control cells picking up the overexpression during incubation. At the time of seeding, DMSO-resuspended Samumed compounds were dispensed to eight wells as a serial dilution from 10 μM to 4.6 nM final concentration in medium, or at 0.12 μM to 0.05 nM with particularly potent compounds. Cells were exposed to the representative compounds overnight (16-18 hours) in a 37° C. incubator.
96-Well flat-bottom plates were coated with 100 μL per well anti-HT7 capture antibody (ThermoFisher, MN1000) diluted 1:300 in 1×PBS at 4° C. overnight, with shaking at 500 rpm. After overnight capture antibody incubation, coated plates were washed four times with 200 μL per well of 1×PBS-0.05% Tween-20, and blocked for 1 hour with 200 μL per well of 1×PBS with 2% BSA. After 1 hour of blocking, plates were washed four times with 200 μL per well of 1×PBS-0.05% Tween-20, prior to sample loading.
Wells of compound-treated cells were visually checked for cell death before being washed with 200 μL per well of 1×DPBS supplemented with phosphatase inhibitor diluted to 1×. Cells were then lysed with 100 μL 1×RIPA buffer supplemented with phosphatase and protease inhibitors (each diluted to a final 1×). Cells were shaken at 500 rpm, 4° C. for 20 minutes prior to further lysis (via manual scraping) and transfer to 96-well V-bottom collection plates (Corning, 3894). V-bottom plates were centrifuged at 4000 rpm, 4° C., for 15 minutes, and 100 μL of lysate supernatant from each well was directly tested for pT212Tau signal by sandwich ELISA.
Specifically, lysates were directly transferred to the coated and blocked ELISA plates for 2 hours before plates were washed four times with 200 μL per well of 1×PBS-0.05% Tween-20 and probed with 100 μL per well of anti-pT212Tau antibody (ThermoFisher, 44-740G) diluted 1:200 in 1×PBS for 2 hours. Plates were washed four times with 200 μL per well of 1×PBS-0.05% Tween-20 and probed with 100 μL per well of anti-rabbit/HRP conjugate (Cell Signaling Technology, 7074S) diluted 1:600 in 1×PBS for 1 hour. Plates were washed four times with 200 μL per well of 1×PBS-0.05% Tween-20 before 100 μL per well of TMB substrate solution (ThermoFisher, N301) was added. When colour development was observed, 100 μL per well of stop solution (ThermoFisher, N600) was added, and colorimetric detection of pT212Tau signal was read at 450 nm with the Cytation 3 Cell Imaging Multi-Mode Reader (BioTek). The signal was used to plot, draw the curves fitting, and determine the EC50 values in GraphPad Prism for tested representative compounds.

[3] = tested on: secreted cytokines TNFα, IL-6 and KC-GRO; assay: Secreted cytokines in Lipopolysaccharide-stimulated BV-2 cells (Table 9 does not say which cytokine); format: cell-based, mouse; details: Mus musculus, BV-2, 5 h; read-out: EC50
[4] = tested on: SW480 colon carcinoma cells; assay: Cell viability assay (CellTiter-Glo); details: Homo sapiens; for EC50: SW480, 96 h; for inhibition at 10 µM: SW480, read-out: percent inhibition at 10 μM
Experimental: Representative compounds were screened using the assay procedure to assess the effect on cell viability as described below.
SW480 colon carcinoma cells were transduced with a lentiviral vector expressing luciferase with a human Sp5 promoter consisting of a sequence of eight TCF/LEF binding sites. […] These stably transduced SW480 cells were expanded in cell culture and used for all further screening activities. Each compound was dissolved in DMSO as a 10 mM stock and used to prepare compound source plates.
For the Cell Viability Assays, the cells were plated at 2,000 cells/well in 384-well plates with a DMEM medium containing 1% fetal bovine serum, and 1% Penicillin-Streptomycin and incubated for four days hours at 37° C. and 5% CO2. Eight replicates of DMSO-treated cells served as controls and cells treated with compound were performed in duplicate.
After incubation, 10 μL of CellTiter-Glo (Promega) was added to each well allowed to incubate for approximately 12 minutes. This reagent “results in cell lysis and generation of a luminescent signal proportional to the amount of ATP present. The amount of ATP is directly proportional to the number of cells present in culture, in agreement with previous reports. The CellTiter-Glo Assay generates a “glow-type” luminescent signal, produced by the luciferase reaction (Promega.com)”.
Dose-response curves were generated and EC50 concentration values were calculated using non-linear regression curve fit in the GraphPad Prism (San Diego, Calif.) or Dotmatics' Studies Software (Bishops Stortford, UK).

[5] = tested on: Wnt-responsive Sp5-Luc reporter in SW480 colon carcinoma cells; assay: Screening assay for Wnt activity (Sp5-Luc reporter gene assay); details: Homo sapiens; for EC50: SW480; for inhibition at 10 µM: SW480, read-out: percent inhibition at 10 μM
IL-6 = IL-6 inhibition in LPS-stimulated human peripheral blood mononuclear cells (HTRF); details: Homo sapiens, PBMC; for EC50: 22 h; for inhibition at 10 µM: read-out: percentage in parentheses after EC50 >10
[6] = tested on: α-smooth muscle actin (aSMA) positive LL29 cells; assay: Inhibition of the fibrotic process: αSMA staining in TGF-β1 treated LL29 fibroblasts from IPF patients; details: Homo sapiens, Fibroblast; for EC50: 96 h; for inhibition at 10 µM: read-out: percentage in parentheses after EC50 >10

Row | Compound | EC50 (DYRK1A kinase) | EC50 (GSK3β kinase) | EC50 [1] | EC50 [2] | EC50 [3] | EC50 [4] | EC50 [5] | EC50 (IL-6) | inhibition at 10 µM [4] | inhibition at 10 µM (IL-6) | EC50 [6] | inhibition at 10 µM [5] | inhibition at 10 µM [6]
1 | C[C@H]1CCCN1CC(=O)Nc1cc2nc(-c3cnn(C)c3)ccc2cn1 [Compound 47, (S)—N-(2-(1-methyl-1H-pyrazol-4-yl)-1,6-naphthyridin-7-yl)-2-(2-methylpyrrolidin-1-yl)acetamide] | 36 nM | 200 nM | > 10000 nM | 668 nM | 260 nM | > 10000 nM | 5210 nM | > 10000 nM | 35.2% | 0% | 7200 nM | – | –
2 | CN1CCN(c2cccc(C(=O)Nc3cc4cc(-c5cnn(C)c5)ccc4nn3)c2)CC1 [Compound 1953, N-(6-(1-Methyl-1H-pyrazol-4-yl)cinnolin-3-yl)-3-(4-methylpiperazin-1-yl) benzamide] | 317 nM | 2620 nM | > 10000 nM | > 10000 nM | 2900 nM | > 10000 nM | > 10000 nM | > 10000 nM | 7.8% | 12.8% | > 10000 nM | 9.7% | 55.5%
3 | CN1CCC(Oc2ccc(C(=O)Nc3cc4cc(-c5cnn(C)c5)cnc4cn3)cc2)CC1 [Compound 2865, N-(3-(1-Methyl-1H-pyrazol-4-yl)-1,7-naphthyridin-6-yl)-4-((1-methylpiperidin-4-yl)oxy)benzamide] | 41 nM | > 10000 nM | > 10000 nM | 122 nM | 160 nM | 4380 nM | 3020 nM | 9610 nM | – | – | 5120 nM | – | –
4 | CN1CCN(c2cc(C(=O)Nc3cc4cc(-c5cnn(C)c5)cnc4cn3)ccn2)CC1 [Compound 2867, N-(3-(1-methyl-1H-pyrazol-4-yl)-1,7-naphthyridin-6-yl)-2-(4-methylpiperazin-1-yl)isonicotinamide] | 36 nM | > 10000 nM | > 10000 nM | 46 nM | – | 4050 nM | 9160 nM | > 10000 nM | – | 5.2% | 5380 nM | – | –
5 | CN1CCN(c2cc(C(=O)Nc3cc4cc(-c5cn(C)nn5)cnc4cn3)ccn2)CC1 [Compound 3098, N-(3-(1-Methyl-1H-1,2,3-triazol-4-yl)-1,7-naphthyridin-6-yl)-2-(4-methylpiperazin-1-yl)isonicotinamide] | 96 nM | > 10000 nM | > 10000 nM | 2000 nM | – | > 10000 nM | > 10000 nM | > 10000 nM | 14.4% | 4.7% | > 10000 nM | 14.9% | 8.3%
6 | Cn1cc(-c2cnc3cnc(NC(=O)c4ccnc(N5CCNCC5)c4)cc3c2)nn1 [Compound 3105, N-(3-(1-Methyl-1H-1,2,3-triazol-4-yl)-1,7-naphthyridin-6-yl)-2-(piperazin-1-yl)isonicotinamide] | 147 nM | > 10000 nM | > 10000 nM | 7800 nM | – | 9750 nM | 4160 nM | > 10000 nM | – | 8% | > 10000 nM | – | 21.8%
7 | Cc1ncc(-c2ccc3cnc(NC(=O)C4CCN(C(=O)CN5CCCC5)CC4)cc3n2)s1 [Compound 4561, N-(2-(2-Methylthiazol-5-yl)-1,6-naphthyridin-7-yl)-1-(2-(pyrrolidin-1-yl)acetyl)piperidine-4-carboxamide] | 7 nM | 182 nM | 2100 nM | 306 nM | 129 nM | > 10000 nM | 953 nM | 4560 nM | 49.5% | – | 664 nM | – | –

Second part, led by results:

Row | EC50 (DYRK1A kinase) | EC50 (GSK3β kinase) | EC50 [1] | EC50 [2] | EC50 [3] | EC50 [4] | EC50 [5] | EC50 (IL-6) | Compound | inhibition at 10 µM [4] | inhibition at 10 µM (IL-6) | EC50 [6] | inhibition at 10 µM [5] | inhibition at 10 µM [6]
8 | 6 nM | 27 nM | 1500 nM | 112 nM | 1400 nM | 6920 nM | 593 nM | > 10000 nM | Cn1cc(-c2cc3cc(NC(=O)C4CCNCC4)ncc3cn2)cn1 [Compound 3638, N-(6-(1-Methyl-1H-pyrazol-4-yl)-2,7-naphthyridin-3-yl)piperidine-4-carboxamide] | – | 6.3% | > 10000 nM | – | 34.9%
9 | 10 nM | 31 nM | 102 nM | 30 nM | 3900 nM | 6990 nM | 73 nM | > 10000 nM | CC(C)CN1CCC(C(=O)Nc2cc3cc(-c4cnn(C)c4)ncc3cn2)CC1 [Compound 3643, 1-Isobutyl-N-(6-(1-methyl-1H-pyrazol-4-yl)-2,7-naphthyridin-3-yl) piperidine-4-carboxamide] | – | 9.8% | 2500 nM | – | –
10 | 4 nM | 18 nM | 398 nM | 15 nM | > 10000 nM | 6660 nM | 426 nM | > 10000 nM | Cn1cc(-c2cc3cc(NC(=O)C4CCN(Cc5ncccn5)CC4)ncc3cn2)cn1 [Compound 3727, N-(6-(1-Methyl-1H-pyrazol-4-yl)-2,7-naphthyridin-3-yl)-1-(pyrimidin-2-ylmethyl)piperidine-4-carboxamide] | – | 6.2% | 149 nM | – | –
11 | 16 nM | 852 nM | > 10000 nM | 268 nM | 305 nM | 5640 nM | 2820 nM | > 10000 nM | Cn1cc(-c2cc3cc(NC(=O)c4ccnc(N5CCNCC5)c4)ncc3cn2)cn1 [Compound 3773, N-(6-(1-Methyl-1H-pyrazol-4-yl)-2,7-naphthyridin-3-yl)-2-(piperazin-1-yl) isonicotinamide] | – | 1.1% | 3320 nM | – | –
12 | 4 nM | 30 nM | 284 nM | 157 nM | > 10000 nM | > 10000 nM | 863 nM | > 10000 nM | O=C(Nc1cc2cc(-c3cncs3)ncc2cn1)C1CCN(C2COC2)CC1 [Compound 4244, 1-(Oxetan-3-yl)-N-(6-(thiazol-5-yl)-2,7-naphthyridin-3-yl)piperidine-4-carboxamide] | 19.9% | 6.9% | > 10000 nM | – | 4.9%
